Source: patent US10035778B2, “Meta-azacyclic amino benzoic acid derivatives as pan integrin antagonists” (Saint Louis University, priority 2015, dated 2018)

Legend:
Assay type in all cases: binding
[1] = molecular target: Recombinant human integrin α8β1 (Homo sapiens (Human), UniProt P05556+P53708); experiment: Solid Phase Receptor Assay (SPRA) for α8β1 function; details: mouse nephronectin-coated plate
Method: 7. Solid Phase Receptor Assay (SPRA) for α8β1 Function
Recombinant mouse nephronectin protein (R&D Systems, Inc, 4298-NP) diluted to 1 μg/mL in TBS+ buffer (25 mM Tris pH 7.4, 137 mM NaCl, 2.7 mM KCl, 1 mM CaCl2, 1 mM MgCl2, 1 mM MnCl2) was added to wells (50 μl/well) of a 96-well half-well transparent microtiter plate (Greiner 675061), and incubated overnight at 4° C. Wells were washed 3 times with 150 μL TBS+ and 150 μL of blocking buffer (TBS+ with 1% bovine serum albumin, Sigma A7906) were added. The plate was incubated for 1 hr at 37° C. and then washed 3× with TBS+. Recombinant human integrin α8β1 (R&D Systems, pre-launch) was diluted to 0.25 μg/mL in TBS+/0.1% bovine serum albumin. Compounds were diluted 1:100 into the integrin solution and 50 μL added to empty wells of the washed nephronectin-coated plate according to a standard template with each sample repeated in triplicate. After incubation for two hours at room temperature, the plate was washed 3× with 150 μL of TBS+. To each well, 50 μL of biotinylated anti-β antibody (R&D Systems, BAF1778) at 0.5 μg/mL in TBS+/0.1% BSA were added and the plate was covered and incubated for 1 hr at room temperature. After washing the plate 3× with 150 μL of TBS+ buffer, 50 μL of streptavidin-conjugated horseradish peroxidase (R&D Systems, DY998) diluted in TBS+ blocking buffer were added to the wells and the plate incubated for 20 min at room temperature. The plate was washed 3× with TBS+ followed by 50 μL of TMB substrate (Sigma T4444) added to each well and the plate incubated for 20 min at room temperature. Plates were read by colorimetric detection at 650 nm wavelength using a Tecan Safire II plate reader. Concentration-response curves were constructed by non-linear regression (best fit) analysis, and IC50 values were calculated for each compound.

[2] = molecular target: Recombinant human integrin αvβ3 (Homo sapiens (Human), UniProt P05106+P06756); experiment: Solid Phase Receptor Assay (SPRA) for αvβ3 function; details: vitronectin-coated plate
Chain of Recombinant human integrin αvβ3 (P06756 31-992): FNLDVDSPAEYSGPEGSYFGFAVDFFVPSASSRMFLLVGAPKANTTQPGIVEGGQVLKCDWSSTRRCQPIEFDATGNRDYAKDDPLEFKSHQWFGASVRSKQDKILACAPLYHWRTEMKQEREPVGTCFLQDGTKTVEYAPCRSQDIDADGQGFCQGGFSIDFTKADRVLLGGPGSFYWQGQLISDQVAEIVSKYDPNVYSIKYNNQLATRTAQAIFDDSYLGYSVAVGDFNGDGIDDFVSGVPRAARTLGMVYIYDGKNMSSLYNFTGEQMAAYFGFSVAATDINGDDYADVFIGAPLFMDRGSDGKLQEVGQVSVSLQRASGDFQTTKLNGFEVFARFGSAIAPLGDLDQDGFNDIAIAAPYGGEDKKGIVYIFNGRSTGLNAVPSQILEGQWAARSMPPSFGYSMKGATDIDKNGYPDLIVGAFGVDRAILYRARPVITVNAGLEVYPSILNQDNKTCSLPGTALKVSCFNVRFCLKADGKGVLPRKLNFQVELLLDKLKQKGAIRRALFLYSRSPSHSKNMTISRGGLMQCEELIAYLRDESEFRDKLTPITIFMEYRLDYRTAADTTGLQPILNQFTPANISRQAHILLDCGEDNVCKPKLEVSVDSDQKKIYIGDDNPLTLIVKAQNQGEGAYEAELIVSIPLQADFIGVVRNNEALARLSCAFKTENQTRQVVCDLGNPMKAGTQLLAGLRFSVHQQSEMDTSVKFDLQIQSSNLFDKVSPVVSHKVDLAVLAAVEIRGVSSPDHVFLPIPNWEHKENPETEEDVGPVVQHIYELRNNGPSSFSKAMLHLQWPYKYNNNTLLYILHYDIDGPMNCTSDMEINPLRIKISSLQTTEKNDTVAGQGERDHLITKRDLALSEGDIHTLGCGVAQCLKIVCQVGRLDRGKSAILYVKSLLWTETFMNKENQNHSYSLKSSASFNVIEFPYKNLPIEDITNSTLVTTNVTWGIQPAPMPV
Chain of Recombinant human integrin αvβ3 (P05106 27-718): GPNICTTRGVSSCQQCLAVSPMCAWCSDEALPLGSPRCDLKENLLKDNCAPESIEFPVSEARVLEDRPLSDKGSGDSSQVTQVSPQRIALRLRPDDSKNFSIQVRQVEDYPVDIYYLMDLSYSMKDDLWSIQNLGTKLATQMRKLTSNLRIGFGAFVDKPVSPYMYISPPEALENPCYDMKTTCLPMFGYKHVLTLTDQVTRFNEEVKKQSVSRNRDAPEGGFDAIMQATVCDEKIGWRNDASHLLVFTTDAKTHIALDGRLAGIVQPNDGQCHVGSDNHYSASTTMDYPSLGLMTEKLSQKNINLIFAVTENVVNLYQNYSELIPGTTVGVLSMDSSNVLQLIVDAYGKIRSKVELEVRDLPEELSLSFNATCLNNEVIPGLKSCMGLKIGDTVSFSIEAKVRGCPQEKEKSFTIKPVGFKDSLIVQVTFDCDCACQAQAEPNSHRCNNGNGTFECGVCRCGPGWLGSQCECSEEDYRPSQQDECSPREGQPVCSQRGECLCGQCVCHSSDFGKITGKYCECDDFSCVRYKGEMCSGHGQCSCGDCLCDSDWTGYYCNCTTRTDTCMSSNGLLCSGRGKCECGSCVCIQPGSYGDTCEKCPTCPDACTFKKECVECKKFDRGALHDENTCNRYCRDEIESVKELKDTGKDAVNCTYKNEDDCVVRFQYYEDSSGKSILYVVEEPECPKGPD
Method: 3. Solid Phase Receptor Assay (SPRA) for αvβ3 Function
Recombinant human vitronectin (R& D Systems, 2308-VN) diluted to 1 μg/mL in TBS+ buffer (25 mM Tris pH 7.4, 137 mM NaCl, 2.7 mM KCl, 1 mM CaCl2, 1 mM MgCl2, 1 mM MnCl2) was added to wells (50 μL/well) of a 96-well half-well transparent microtiter plate (Greiner 675061) and incubated overnight at 4° C. Wells were washed 3 times with 150 μL TBS+ and 150 μL of blocking buffer (TBS+ with 1% bovine serum albumin, Sigma A7906) were added. The plate was incubated for 1 hr at 37° C. and then washed 3× with TBS+ buffer. Recombinant human integrin αvβ3 (R&D Systems, 3050-AV) was diluted to 1 μg/mL in TBS+/0.1% bovine serum albumin. Compounds were diluted 1:100 into the integrin solution and then 50 μL added to empty wells of the washed vitronectin-coated plate according to a standard template with each sample repeated in triplicate. After incubation for two hours at room temperature, the plate was washed 3× with 150 μL of TBS+ buffer. To each well, 50 μL of biotinylated anti-αv antibody (R&D Systems, BAF1219) at 0.5 μg/mL in TBS+/0.1% BSA were added and the plate covered and incubated for 1 hr at room temperature. After washing the plate 3× with 150 μL of TBS+ buffer, 50 μL of streptavidin-conjugated horseradish peroxidase (R&D Systems, DY998) diluted in TBS+ blocking buffer were added to the wells and the plate incubated for 20 min at room temperature. The plate was washed 3× with TBS+ buffer followed by 50 μL of TMB substrate (Sigma, T4444) added to each well and the plate was incubated for 20 min at room temperature. Plates were read by colorimetric detection at 650 nm wavelength using a Tecan Safire II plate reader. Concentration-response curves were constructed by non-linear regression (best fit) analysis, and IC50 values were calculated for each compound.

[3] = molecular target: Recombinant human integrin αvβ6 (Homo sapiens (Human), UniProt P06756+P18564); experiment: Solid Phase Receptor Assay (SPRA) for αvβ6 function; details: LAP-coated plate
Chain of Recombinant human integrin αvβ6 (P06756 31-992): as the sequence (P06756 31-992) above
Chain of Recombinant human integrin αvβ6 (P18564 22-707): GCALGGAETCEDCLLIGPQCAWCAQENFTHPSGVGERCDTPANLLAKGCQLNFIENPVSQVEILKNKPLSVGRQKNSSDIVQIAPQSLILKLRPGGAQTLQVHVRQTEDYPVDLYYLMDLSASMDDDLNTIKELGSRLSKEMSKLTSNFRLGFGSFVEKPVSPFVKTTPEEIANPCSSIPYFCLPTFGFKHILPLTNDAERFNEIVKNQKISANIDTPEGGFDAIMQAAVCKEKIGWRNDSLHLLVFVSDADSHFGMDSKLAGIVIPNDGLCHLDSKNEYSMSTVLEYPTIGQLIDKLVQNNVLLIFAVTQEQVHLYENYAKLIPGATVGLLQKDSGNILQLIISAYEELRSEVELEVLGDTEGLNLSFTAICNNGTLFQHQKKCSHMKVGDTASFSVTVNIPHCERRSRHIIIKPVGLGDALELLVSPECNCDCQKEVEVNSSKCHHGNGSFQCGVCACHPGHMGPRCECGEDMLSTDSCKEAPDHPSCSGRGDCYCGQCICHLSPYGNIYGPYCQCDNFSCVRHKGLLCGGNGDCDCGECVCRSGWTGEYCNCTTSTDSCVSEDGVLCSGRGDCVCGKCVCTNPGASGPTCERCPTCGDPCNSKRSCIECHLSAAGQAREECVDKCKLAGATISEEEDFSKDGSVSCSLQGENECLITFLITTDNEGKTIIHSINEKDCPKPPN
Method: 5. Solid Phase Receptor Assay (SPRA) for αvβ6 Function
Recombinant human LAP (R&D Systems, 246-LP) diluted to 0.25 μg/mL in TBS+ buffer (25 mM Tris pH 7.4, 137 mM NaCl, 2.7 mM KCl, 1 mM CaCl2, 1 mM MgCl2, 1 mM MnCl2) was added to wells (50 μL/well) of a 96-well half-well transparent microtiter plate (Greiner 675061) and incubated overnight at 4° C. Wells were washed 3 times with 150 μL TBS+, and 150 μL of blocking buffer (TBS+ with 1% bovine serum albumin, Sigma A7906) were added. The plate was incubated for 1 hr at 37° C., and then washed 3× with TBS+ buffer. Recombinant human integrin αvβ6 (R&D Systems, 3817-AV) was diluted to 0.1 μg/mL in TBS+/0.1% bovine serum albumin. Compounds were diluted 1:100 into the integrin solution and then 50 μL added to empty wells of the washed LAP-coated plate according to a standard template with each sample repeated in triplicate. After incubation for two hours at room temperature, the plate was washed 3× with 150 μL of TBS+ buffer. To each well, 50 μL of biotinylated anti-αv antibody (R&D Systems, BAF1219) at 0.5 μg/mL in TBS+/0.1% BSA were added and the plate was covered and incubated for 1 hr at room temperature. After washing the plate 3× with 150 μL of TBS+ buffer, 50 μL of streptavidin-conjugated horseradish peroxidase (R&D Systems, DY998) diluted in TBS+ blocking buffer were added to the wells and the plate incubated for 20 min at room temperature. The plate was washed 3× with TBS+ buffer followed by 50 μL of TMB substrate (Sigma T4444) added to each well and the plate incubated for 20 min at room temperature. Plates were read by colorimetric detection at 650 nm wavelength using a Tecan Safire II plate reader. Concentration-response curves were constructed by non-linear regression (best fit) analysis, and IC50 values were calculated for each compound.

Chain of Recombinant human integrin α8β1 (P53708 39-1012): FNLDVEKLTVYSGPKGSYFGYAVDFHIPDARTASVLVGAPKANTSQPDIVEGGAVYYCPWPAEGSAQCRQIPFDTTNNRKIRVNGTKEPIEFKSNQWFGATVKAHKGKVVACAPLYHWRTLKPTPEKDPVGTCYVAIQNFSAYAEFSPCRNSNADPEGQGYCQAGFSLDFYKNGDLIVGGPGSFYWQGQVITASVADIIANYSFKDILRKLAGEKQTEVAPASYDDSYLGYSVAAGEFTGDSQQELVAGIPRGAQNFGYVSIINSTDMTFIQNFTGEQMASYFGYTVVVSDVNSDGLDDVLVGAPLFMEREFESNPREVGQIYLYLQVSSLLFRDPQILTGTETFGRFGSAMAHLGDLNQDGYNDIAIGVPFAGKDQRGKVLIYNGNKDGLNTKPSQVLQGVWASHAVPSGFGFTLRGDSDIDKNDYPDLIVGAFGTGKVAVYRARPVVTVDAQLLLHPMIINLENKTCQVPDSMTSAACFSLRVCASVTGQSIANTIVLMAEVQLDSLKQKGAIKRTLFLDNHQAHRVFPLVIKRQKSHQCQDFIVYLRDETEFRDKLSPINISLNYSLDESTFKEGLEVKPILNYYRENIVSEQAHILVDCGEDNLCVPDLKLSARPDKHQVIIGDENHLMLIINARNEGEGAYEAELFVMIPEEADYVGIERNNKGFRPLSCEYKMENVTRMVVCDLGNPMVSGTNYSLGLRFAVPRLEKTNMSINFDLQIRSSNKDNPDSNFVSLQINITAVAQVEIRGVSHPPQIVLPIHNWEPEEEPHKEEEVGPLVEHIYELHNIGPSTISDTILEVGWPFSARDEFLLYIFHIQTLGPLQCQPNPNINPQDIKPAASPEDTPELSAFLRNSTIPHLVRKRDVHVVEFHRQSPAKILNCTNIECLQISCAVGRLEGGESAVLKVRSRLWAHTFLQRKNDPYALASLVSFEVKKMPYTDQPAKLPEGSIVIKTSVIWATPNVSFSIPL
Chain of Recombinant human integrin α8β1 (P05556 21-728): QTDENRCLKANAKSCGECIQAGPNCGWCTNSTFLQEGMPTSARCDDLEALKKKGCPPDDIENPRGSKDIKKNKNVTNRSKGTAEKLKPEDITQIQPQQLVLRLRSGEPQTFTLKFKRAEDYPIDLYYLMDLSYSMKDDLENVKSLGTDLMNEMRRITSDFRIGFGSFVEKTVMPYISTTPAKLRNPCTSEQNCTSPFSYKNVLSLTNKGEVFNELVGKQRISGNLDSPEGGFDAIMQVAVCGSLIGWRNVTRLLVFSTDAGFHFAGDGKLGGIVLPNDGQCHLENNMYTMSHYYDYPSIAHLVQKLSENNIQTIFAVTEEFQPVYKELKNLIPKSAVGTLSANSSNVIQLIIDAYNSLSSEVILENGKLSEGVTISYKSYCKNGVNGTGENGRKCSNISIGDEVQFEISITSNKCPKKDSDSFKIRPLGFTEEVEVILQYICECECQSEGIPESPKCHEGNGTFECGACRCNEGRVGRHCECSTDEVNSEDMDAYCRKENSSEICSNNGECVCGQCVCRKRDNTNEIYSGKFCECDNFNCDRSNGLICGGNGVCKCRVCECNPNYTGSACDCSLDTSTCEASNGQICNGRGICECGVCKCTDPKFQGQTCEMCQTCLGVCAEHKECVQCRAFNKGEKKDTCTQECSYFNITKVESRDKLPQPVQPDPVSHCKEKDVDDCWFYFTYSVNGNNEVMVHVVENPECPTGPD

SMILES	IC50 [1]	IC50 [2]	IC50 [3]
O=C(O)C[C@H](NC(=O)CNC(=O)c1cc(O)cc(NC2=NCC(O)CN2)c1)c1cc(F)cc(Br)c1 (stereo partly drawn) [Example 13, (3S)-3-[3-bromo-5-fluoro-phenyl)-3-(2-(3-hydroxy-5-((5-hydroxy-1,4,5,6-tetrahydropyrimidin-2-yl)amino)benzamido)acetamido)propanoic acid]	0.6 nM	1.7 nM	0.4 nM
O=C(O)C[C@H](NC(=O)CNC(=O)c1cncc(NC2=NCC(O)CN2)c1)c1cc(Br)cc(Br)c1 (stereo partly drawn) [Example 14, (3S)-3-(3,5-dibromophenyl)-3-[[2-[[5-[(5-hydroxy-1,4,5,6-tetrahydropyrimidin-2-yl)amino]pyridine-3-carbonyl]amino]acetyl]amino]propanoic acid]	0.4 nM	0.3 nM	0.2 nM
O=C(O)C[C@H](NC(=O)CNC(=O)c1cc(O)cc(NC2=NCC(O)CN2)c1)c1cc(Cl)cc(OC(F)(F)F)c1 (stereo partly drawn) [Example 16, (3S)-3-[3-chloro-5-(trifluoromethoxy)phenyl)-3-(2-(3-hydroxy-5-((5-hydroxy-1,4,5,6-tetrahydropyrimidin-2-yl)amino)benzamido)acetamido)propanoic acid]	0.5 nM	3 ± 0.3 nM	0.5 nM
O=C(O)C[C@H](NC(=O)CNC(=O)c1cc(O)cc(NC2=NCC(O)CN2)c1)c1cc(Br)cc(Br)c1 (stereo partly drawn) [Example 1, (3S)-3-(3,5-dibromophenyl)-3-(2-(3-hydroxy-5-((5-hydroxy-1,4,5,6-tetrahydropyrimidin-2-yl)amino)benzamido)acetamido)propanoic acid]	1.3 nM	2.3 ± 0.1 nM	0.4 nM
O=C(O)C[C@H](NC(=O)CNC(=O)c1cc(O)cc(NC2=NCC(O)CN2)c1)c1cc(C(F)(F)F)cc(C(F)(F)F)c1 (stereo partly drawn) [Example 10, (3S)-3-[3,5-bis(trifluoromethyl)phenyl)-3-(2-(3-hydroxy-5-((5-hydroxy-1,4,5,6-tetrahydropyrimidin-2-yl)amino)benzamido)acetamido]propanoic acid]	1.1 nM	4 nM	0.3 ± 0.1 nM
O=C(O)C[C@H](NC(=O)CNC(=O)c1cc(O)cc(NC2=NCC(O)CN2)c1)c1cc(Cl)cc(C(F)F)c1 (stereo partly drawn) [Example 3, (3S)-3-[3-chloro-5-(difluoromethyl)phenyl)-3-(2-(3-hydroxy-5-((5-hydroxy-1,4,5,6-tetrahydropyrimidin-2-yl)amino)benzamido)acetamido]propanoic acid]	0.9 nM	1 nM	0.4 nM
O=C(O)C[C@H](NC(=O)CNC(=O)c1cc(O)cc(NC2=NCC(O)CN2)c1)c1cc(Br)cc(C(F)(F)F)c1 (stereo partly drawn) [Example 2, (3S)-3-(3-bromo-5-(trifluoromethyl)phenyl)-3-(2-(3-hydroxy-5-((5-hydroxy-1,4,5,6-tetrahydropyrimidin-2-yl)amino)benzamido)acetamido)propanoic acid]	1.5 nM	2.7 ± 0.4 nM	0.3 nM
O=C(O)C[C@H](NC(=O)CNC(=O)c1cc(O)cc(NC2=NCC(O)CN2)c1)c1cc(Br)cc(C(F)F)c1 (stereo partly drawn) [Example 4, (3S)-3-[3-bromo-5-(difluoromethyl)phenyl)-3-(2-(3-hydroxy-5-((5-hydroxy-1,4,5,6-tetrahydropyrimidin-2-yl)amino)benzamido)acetamido]propanoic acid]	0.6 nM	3 nM	0.4 nM
O=C(O)C[C@H](NC(=O)CNC(=O)c1cncc(NC2=NCC(O)CN2)c1)c1cc(Cl)cc(C(F)(F)F)c1 (stereo partly drawn) [Example 7]	0.6 nM	3 nM	0.3 nM
Cc1cc(Cl)cc([C@@H](CC(=O)O)NC(=O)CNC(=O)c2cccc(NC3=NCCN3)c2)c1O [Example C11, reference compound]	17 nM	9 nM	4 nM
O=C(O)C[C@H](NC(=O)CNC(=O)c1cc(O)cc(NC2=NCC(O)CN2)c1)c1cc(Br)cc(OC(F)(F)F)c1 (stereo partly drawn) [Example 17, (3S)-3-(3-bromo-5-(trifluoromethoxy)phenyl)-3-(2-(3-hydroxy-5-((5-hydroxy-1,4,5,6-tetrahydropyrimidin-2-yl)amino)benzamido)acetamido)propanoic acid]	0.7 nM	2.8 ± 1.1 nM	0.7 nM

Other lines, results leading:

IC50 [1]	IC50 [2]	IC50 [3]	SMILES
26 nM	11 nM	12 nM	O=C(O)CC(NC(=O)CNC(=O)c1cc(O)cc(NC2=NCC(O)CN2)c1)c1cc(Br)cc(Br)c1O (stereo not drawn) [Example C7, reference compound]
594 nM	5 nM	2 nM	Cc1ccc(O)c(C(CC(=O)O)NC(=O)CNC(=O)c2cccc(NC(=N)N)c2)c1 (stereo not drawn) [Example C8, reference compound]
3 nM	3 nM	> 1000 nM	O=C(O)C[C@H](NC(=O)CNC(=O)c1cc(O)cc(NC2=NCC(O)CN2)c1)c1ccccc1 (stereo partly drawn) [Example C2, reference compound]
10 nM	6 nM	3 nM	Cc1cc(Cl)cc([C@@H](CC(=O)O)NC(=O)CNC(=O)c2cc(O)cc(NC3=NCC(O)CN3)c2)c1O (stereo partly drawn) [Example C10, reference compound]
40 nM	4 ± 1 nM	1 nM	N=C(N)Nc1cccc(C(=O)NCC(=O)NC(CC(=O)O)c2cc(F)cc(C(F)(F)F)c2)c1 (stereo not drawn) [Example C9, reference compound]
8 ± 2 nM	5 ± 2 nM	2 ± 1 nM	O=C(O)C[C@H](NC(=O)CNC(=O)c1cc(O)cc(NC2=NCC(O)CN2)c1)c1cc(Cl)cc(Br)c1O (stereo partly drawn) [Example C1, reference compound]
63 nM	4 nM	2 nM	Cc1cc(C)cc(C(CC(=O)O)NC(=O)CNC(=O)c2cccc(NC(=N)N)c2)c1 (stereo not drawn) [Example C4, reference compound]
383 nM	4 nM	17 ± 2 nM	N=C(N)Nc1cccc(C(=O)NCC(=O)NC(CC(=O)O)c2ccccc2)c1 (stereo not drawn) [Example C5, reference compound]
